In one data set the target is T1, aldosterone synthase (Homo sapiens, UniProt P19099).
T1 construct: synthesized in the adrenal cortex by aldosterone synthase; endogenous in cells; host or cells: adrenal cortex of healthy human subjects (in vivo, oral dosing)
T1 sequence (P19099 25-503): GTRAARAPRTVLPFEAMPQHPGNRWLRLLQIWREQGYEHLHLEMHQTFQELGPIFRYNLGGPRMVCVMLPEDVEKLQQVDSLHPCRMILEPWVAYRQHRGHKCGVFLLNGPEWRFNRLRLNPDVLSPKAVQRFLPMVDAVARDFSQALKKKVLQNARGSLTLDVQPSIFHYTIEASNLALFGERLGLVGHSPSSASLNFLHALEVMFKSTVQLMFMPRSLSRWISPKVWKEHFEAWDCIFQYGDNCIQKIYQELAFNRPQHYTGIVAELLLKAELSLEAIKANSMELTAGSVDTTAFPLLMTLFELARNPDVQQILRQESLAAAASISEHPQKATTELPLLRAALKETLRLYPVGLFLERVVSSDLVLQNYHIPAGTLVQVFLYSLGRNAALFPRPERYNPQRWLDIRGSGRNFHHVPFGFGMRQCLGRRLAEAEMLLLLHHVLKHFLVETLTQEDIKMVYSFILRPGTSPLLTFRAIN
The data set is described as follows: SAD study: plasma and urine aldosterone and precursors (Cortrosyn challenge, standing, normal and low salt diet). Type of data set: in vivo. The settings on record: normal salt diet, low salt diet conditions. The protocol: Single doses of (R)-compound 1 reduced plasma and urine aldosterone levels by approximately 85% to 90% in a dose-dependent manner, consistently reaching a maximum effect at a dose of 10 mg (R)-compound 1 under the different conditions tested (Cortrosyn® challenge, standing, normal salt diet, and low salt diet conditions). No change in plasma cortisol levels was apparent across the full dose range tested (0 to 360 mg (R)-compound 1).
A maximum effect on aldosterone reduction was consistently achieved at a dose of 10 mg under the different conditions tested in healthy subjects (Cortrosyn® challenge, standing, normal salt diet, and low salt diet conditions). No change in plasma cortisol levels after the Cortrosyn challenge was apparent across the full dose range tested (0 to 360 mg of (R)-compound 1).
(R)-compound 1 induced a dose-dependent blunting of plasma aldosterone levels as compared to Day −1 baseline and as compared to placebo, with a maximum effect achieved at the 10 mg dose level (approximate 85% to 90% decrease as compared to Day −1). This effect was observed both on the post-Cortrosyn challenge readout (time interval 0 to 4 hours), and on the standing aldosterone peak (time interval 4 to 12 hours) (See FIG. 10).
Notes: Plasma aldosterone levels that were Below limit of quantification were set to the lower limit of quantitation value (5 pg/mL) to allow further calculation. […]

Data set [1] in a line: SAD study Part 1: safety and tolerability (adverse events, laboratory values). The format is in vivo. The settings on record: single oral dose, highest dose tested. Here is the method:
There were no deaths, serious adverse events (SAEs), or dose-limiting events and the maximum tolerated dose observed was at the highest dose tested (360 mg). Overall, the most frequently reported AEs following administration of a single dose of (R)-compound 1 were headache, nasopharyngitis, diarrhea, asthenia, dizziness, and nausea.
Urine sodium and the sodium to potassium ratio both increased, with the sodium loss in urine greater than the potassium retention. No change in urine creatinine was apparent.
AEs were reported for few subjects and the incidence was not dose dependent (Table 14). No severe AEs, SAEs, withdrawals due to AEs, or deaths were noted. Overall, the most frequently reported AEs across dose levels were headache, nasopharyngitis, diarrhea, and nausea; however, the only events reported by >1 subject at any dose level were toothache (2 subjects [12.5%] with placebo), nasopharyngitis (2 subjects [12.5%] with placebo), and headache (2 subjects [33.3%] with 180 mg). The majority of AEs were considered not related to study drug. Two events of moderate gastroenteritis were reported (with 180 mg and placebo) and all other AEs were mild in intensity.
Isolated markedly abnormal safety laboratory values were reported but no dose-dependent pattern was apparent. No AEs related to markedly abnormal safety laboratory values were reported. […]

In the case of `CCC(=O)N[C@@H]1CCCc2c(-c3ccc4c(c3)CCC(=O)N4C)cncc21` [(R)-Compound 1, (R)—N-(4-(1-methyl-2-oxo-1,2,3,4-tetrahydroquinolin-6-yl)-5,6,7,8-tetrahydroisoquinolin-8-yl)propionamide], the “dose at which maximum effect on aldosterone reduction reached” value at aldosterone synthase was 10 mg. In data set [1], this molecule yielded a maximum tolerated dose of 360 mg.

The record behind these values is patent US20240277698A1, “METHODS OF USING ALDOSTERONE SYNTHASE INHIBITORS” (CINCOR PHARMA, INC., priority 2021, published 2024).
